From patent US11918570B2, “Method of treatment for prevention of glucocorticoid toxicity and/or enhancement of muscle regeneration via neutrophil elastase inhibition” (The Research Foundation for The State University of New York, priority 2020, dated 2024)
Entries after “also recorded” stand apart in the source; their conditions may differ.

Tests used:
[1] = tested on: dystrophin-deficient mice (mdx4cv strain); test: Diaphragm strip tetanic force and residual force; assay type: in vivo, mouse
[2] = tested on: dystrophin-deficient mice (mdx4cv strain); test: 12-week oral treatment of mdx4cv mice, overall efficacy; assay type: in vivo, mouse; conditions: elastase inhibitor orally, concomitantly with oral prednisolone
Protocol: FIG. 1F is a graphical illustration of data gathered from in vivo testing efficacy of a placebo, as compared to the elastase inhibitor Alvelestat, alone at various administration concentrations, and in combination with the glucocorticoid prednisolone at various administration concentrations. In this, and the following figures, the abbreviation “Plcb” refers to administration of a placebo, the abbreviation “Pred” refers to administration of prednisolone at 1 mg/kg/day, the abbreviation “Alv10” refers to the administration of the elastase inhibitor alvelestat at 10 mg/kg/day, and the abbreviation “Alv25” refers to the administration of the elastase inhibitor alvelestat at 25 mg/kg/day.
The administration of the various compounds occurred over a 12-week period, in a controlled randomized, double blinded test using dystrophin-deficient mice (mdx4cv strain). In FIG. 1F, beginning during the tenth week of the test, the mice were exposed to an activity wheel, with the cumulative distance plotted on the y-axis and the number of days spent with the exercise wheel plotted on the x-axis.

[3] = tested on: dystrophin-deficient mice (mdx4cv strain); test: Myofiber necrosis (mIgG uptake on immunostained cryosections); assay type: in vivo, mouse; conditions: 12 weeks, FIG. 10
Protocol: In FIG. 10, myofiber necrosis was measured by calculating the percentage of myofibers that uptake mouse immunoglobulins (mIgG) on immunostained cryosections. IgG are normally present only in the blood and the extracellular matrix within tissues, but are uptaken by necrotic cells that have permeable plasma membranes due to cell damage damage.

[4] = tested on: dystrophin-deficient mice (mdx4cv strain); test: Serum muscle creatine kinase (mCK) activity; assay type: in vivo, mouse; conditions: 12 weeks; FIG. 6
Description: FIG. 6 is a graphical illustration of muscle creatine kinase (mCK) activity for various cohorts of tested mice (including mice pre-treatment with any elastase inhibitor or glucocorticoid) at the conclusion of the 12 week administration period. FIG. 7 is a graphical illustration of MyoD protein levels for various cohorts of tested mice (including mice pre-treatment with any elastase inhibitor or glucocorticoid) at the conclusion of the 12 week administration period. FIG. 8 is a graphical illustration of liver pathology scores for various cohorts of tested mice (including mice pre-treatment, with any elastase inhibitor or glucocorticoid) at the conclusion of the 12 week administration period.

[5] = tested on: dystrophin-deficient mice (mdx4cv strain); test: Muscle mass: quadriceps wet weight and diaphragm cross-sectional area; assay type: in vivo, mouse; conditions: 12 weeks; for prednisolone-induced loss of muscle mass / muscle atrophy: in combination with prednisolone, FIGS. 15, 16; for muscle mass (quadriceps wet weight): single agent, FIG. 15
Description: FIG. 15 illustrates the wet weight of quadriceps muscle groups dissected from dystrophic mice at treatment start (baseline, Pre-Tr) or after the 12 week administration period, at the time of euthanasia.

[6] = target: T1, Human NE (hNE) (Homo sapiens, UniProt P08246); test: Human NE activity in vitro, cumulative elastase activity over time; assay type: biochemical; conditions: hNE incubated with various concentration of inhibitor; FIGS. 1A-1C
T1 sequence (P08246 30-267): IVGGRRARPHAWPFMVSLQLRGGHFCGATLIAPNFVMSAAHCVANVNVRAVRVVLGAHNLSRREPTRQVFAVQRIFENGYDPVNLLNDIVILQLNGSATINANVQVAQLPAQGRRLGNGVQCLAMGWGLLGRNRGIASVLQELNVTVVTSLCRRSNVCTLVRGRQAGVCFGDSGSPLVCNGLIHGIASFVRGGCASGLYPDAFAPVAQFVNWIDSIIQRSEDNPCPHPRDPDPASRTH
Protocol: In FIGS. 1A-1C Human NE (hNE) was incubated for the indicated amount of time (X-axis) either alone (Control, black line) or in the presence of various concentration of inhibitor, as indicated in each graph (colored lines). The cumulative elastase activity detected over time is plotted.
Several methods for measuring elastase enzymatic activity are known in the art. Merely by way of example, elastase activity can be determined by measuring the fluorescence emitted by a fluorigenic peptide such as MeOSuc-Ala-Ala-Pro-Val-AFC or Suc-Ala-Ala-Ala-AMC. Fluorescence may be measured, for example, using a plate reader. Other suitable assays for measuring elastase activity will be known to the skilled person. These may include measuring the product generated by incubation with a fluorescently labelled peptide such as 5-FAM-Arg-Glu-Ala-Val-Val-Tyr or 5-FAM-Ala-Ala-Ala-Phe-Tyr-Asp using an instrument that detects the size of the fluorescently labelled probe.

[7] = tested on: myoblasts from a mouse model of Duchenne muscular dystrophy (mdx4cv); test: NE-induced myoblast death, mdx4cv mouse myoblasts treated with mouse NE; assay type: cell-based; conditions: FIG. 1E
Description: (§1) The number of live cells in each condition was counted and plotted as percentage of the number of live cells in the untreated (Control) condition.

[8] = tested on: dystrophin-deficient mice (mdx4cv strain); test: Inflammation transcripts in muscle by RNA sequencing; assay type: in vivo, mouse; conditions: elastase inhibitor alone, 12 weeks; FIGS. 11A, 11B
Protocol: In FIGS. 11A and 11B, mRNA was extracted from muscles of the mice, then transcripts were quantified using next generation sequencing. […] Mdx^4cv mice were treated for 12 weeks with either placebo (Plcb, gray boxes) or prednisolone (1 mg/Kg/day, cyan boxes) alone or in combination with the elastase inhibitor alvelestat (Alv) at two different doses (10 mg/Kg/day, pink boxes; 25 mg/Kg/day, purple boxes). Each box-and-whiskers graph represent the levels of a marker of the immune response detected by RNA sequencing (n=6 per treatment group, Y-axis scale on the left). The overlayed line graphs show the effect size of each treatment vs Plcb calculated and plotted as Cohen's d (Y-axis scale on the right). Significance of each treatment vs Plcb: ***=p<0.001, **=p<0.01, *=p<0.05.

[9] = tested on: dystrophin-deficient mice (mdx4cv strain); test: Muscle fibrosis, Sirius Red staining of gastrocnemius cryosections; assay type: in vivo, mouse; conditions: 12 weeks, FIG. 13
Protocol: FIG. 13 illustrates fibrosis levels of the various cohorts, assessed on cryosections of gastrocnemius muscles from the mice, which were stained with Sirius Red to detect fibrillar collagen. Untreated dystrophic mice were euthanized at the age when treatments start (Pre-tr) and used as baseline for disease progression. Images were analyzed for their fluorescence intensity (Sirius red emits fluorescence in the yellow-red band of the light spectrum) as a measure of collagen abundance per unit area (e.g. per pixel), which was multiplied by the total Sirius red+ area as a proxy for 3D evaluation of fibrillar collagen content.

[10] = tested on: myoblasts isolated from a patient affected by Duchenne muscular dystrophy; test: NE-induced myoblast death, DMD patient myoblasts treated with human NE; assay type: cell-based; conditions: for rescue of NE-induced myoblast death (number of live cells as percentage of untreated Control): DMD patient myoblasts treated with human NE, FIG. 1D; for effectiveness against human NE compared with mouse NE: comparison of FIG. 1D (hNE) and FIG. 1E (mNE)
Description: as §1

SMILES	muscle mass (quadriceps wet weight) [5]	inhibiting human NE activity in vitro [6]	rescue of NE-induced myoblast death (number of live cells as percentage of untreated Control) [7]	rescue of NE-induced myoblast death (number of live cells as percentage of untreated Control) [10]	effectiveness against human NE compared with mouse NE [10]	further results
Cc1c(-c2ccnn2C)cc(C(=O)NCc2ccc(S(C)(=O)=O)cn2)c(=O)n1-c1cccc(C(F)(F)F)c1 [Alvelestat]	increased it	similarly potent	similarly effective at blocking NE-induced myoblast death	similarly effective at rescuing NE-induced myoblast cell death; also recorded: similarly effective at blocking NE-induced myoblast death	most effective against human NE	diaphragm weakness (specific tetanic force, residual force) ([1]; alone and in combination with prednisolone, FIGS. 17-19): affects diaphragm weakness independent of muscle loss in a complex manner; prednisolone efficacy [2]: enhances prednisolone efficacy; myofiber necrosis ([3]; alvelestat alone, 10 and 25 mg/kg/day): decreases myofiber necrosis in a dose-dependent manner; also recorded: reduces necrosis; myofiber necrosis / myofiber stability ([3]; combined with prednisolone 1 mg/kg/day): additive affect on myofiber stability; serum mCK levels (muscle damage) [4]: lowers serum mCK levels; prednisolone-induced loss of muscle mass / muscle atrophy [5]: partly rescued the prednisolone-induced loss of muscle mass in a dose-dependent manner that appears inversely correlated; prednisolone-induced loss of muscle mass / muscle atrophy ([5]; listed as AZD9668): reduces prednisolone induced muscle atrophy; inflammation (immune response transcripts) [8]: does not significantly affect inflammation; muscle fibrosis ([9]; alone): decreases muscle fibrosis; prednisolone-induced fibrosis ([9]; in combination with prednisolone): prevents prednisolone-induced fibrosis
CC(=O)C1=C(C)N(c2cccc(C(F)(F)F)c2)C(=O)N[C@@H]1c1ccc(C#N)nc1 [BAY-678]	–	–	similarly effective at blocking NE-induced myoblast death	–	–	–
C[C@]12C=CC(=O)C=C1CC[C@@H]1[C@@H]2[C@@H](O)C[C@@]2(C)[C@H]1CC[C@]2(O)C(=O)CO [prednisolone]	dramatically decreased muscle mass	–	–	–	–	residual force at 15 seconds after peak force (percentage of the peak force) ([1]; diaphragm strips, 20 second tetanus, FIG. 19): decline in residual force, which is greater for prednisolone alone
COc1cc(C(C)C)c2c(c1)S(=O)(=O)N(COc1cc(=O)n3cccc(OCCN4CCCCC4)c3n1)C2=O [SSR69071]	–	similarly potent	similarly effective at blocking NE-induced myoblast death	similarly effective at rescuing NE-induced myoblast cell death; also recorded: similarly effective at blocking NE-induced myoblast death	most effective against human NE	–
